Read-outs that look alike come from different tables or passages of the source.
Experiments:
Experiment in all cases: Checkerboard broth microdilution (CLSI)
Type in all cases: cell-based
C. tropicalis 1046709 = details: Candida tropicalis; single agent; isolate 1046709
Method: (§1) Isolates were tested against varying concentrations of amphotericin B and C2′epiAmB (range, 0.06 to 4 mg/L) and combined with fluconazole (range, 0.12 to 128 mg/L) or ketoconazole (range 0.008 to 8 mg/L) or voriconazole (range, 0.004 to 4 mg/L) using a checkerboard grid design following the Clinical and Laboratory Standards Institute (CLSI) broth microdilution method (M23Ed5).

[1] = tested on: C. parapsilosis ATCC 22019; details: isolate ATCC 22019
Method: as §1

C. albicans 967374 = details: Candida albicans, single agent; isolate 967374; read-out: MIC
Method: as §1

C. auris 1081160 = details: Candidozyma auris, single agent, isolate 1081160
Method: as §1

C. krusei ATCC 6258 = details: Pichia kudriavzevii, ATCC6258, single agent; isolate ATCC 6258; read-out: MIC
Method: as §1

C. parapsilosis 1048737 = details: single agent, isolate 1048737
Method: as §1

C. krusei 975691 = tested on: C. krusei 975691
Method: as §1

C. glabrata 1046695 = details: Nakaseomyces glabratus, single agent, isolate 1046695
Method: as §1

A. fumigatus 1077391 = details: Aspergillus fumigatus; single agent; isolate 1077391
Method: as §1

F. solani SC 1047542 = details: Fusarium solani; single agent; isolate 1047542
Method: as §1

A. flavus SC 1085986 = details: Aspergillus flavus; single agent; isolate 1085986
Method: as §1

[2] = tested on: A. fumigatus ATCC MYA-3626; details: single agent, isolate ATCC MYA-3626
Method: as §1

F. oxysporum SC 1087597 = details: Fusarium oxysporum; single agent; isolate 1087597
Method: as §1

A. flavus ATCC 204304 = details: Aspergillus flavus, ATCC204304; single agent; isolate ATCC 204304
Method: as §1

[3] = Lodderomyces parapsilosis, ATCC22019, single agent, read-out: MIC
[4] = Lodderomyces parapsilosis, read-out: MIC
[5] = Pichia kudriavzevii, single agent, isolate 975691, read-out: MIC
[6] = Aspergillus fumigatus, read-out: MIC

MIC (C. tropicalis 1046709) [µg/mL]	MIC [1, 3] [µg/mL]	MIC (C. albicans 967374) [µg/mL]	MIC (C. krusei ATCC 6258) [µg/mL]	MIC (C. parapsilosis 1048737; [4]) [µg/mL]	MIC (C. parapsilosis 1048737) [µg/mL]	MIC (A. fumigatus 1077391) [µg/mL]	MIC (F. solani SC 1047542) [µg/mL]	MIC (C. auris 1081160; read-out: MIC) [µg/mL]	MIC (A. flavus SC 1085986) [µg/mL]	MIC (C. krusei 975691; [5]) [µg/mL]	MIC (C. glabrata 1046695; read-out: MIC) [µg/mL]	MIC [2, 6] [µg/mL]	MIC (F. oxysporum SC 1087597) [µg/mL]	MIC (A. flavus ATCC 204304) [µg/mL]	Compound	other results
0.12	0.06	0.25	0.25	0.015	0.03	> 8	> 8	0.5	4	1	4	8	> 8	2	CC(=O)N1CCN(c2ccc(OCC3COC(Cn4ccnc4)(c4ccc(Cl)cc4Cl)O3)cc2)CC1 (stereo not drawn) [Ketoconazole, ketoconazole]	MIC (C. krusei 975691; single agent, isolate 975691): 2 µg/mL; MIC [2]: >8 µg/mL
0.12	0.03	0.25	0.25	0.008	0.015	2	4	1	1	4	4	0.5	4	1	C[C@@H](c1ncncc1F)[C@](O)(Cn1cncn1)c1ccc(F)cc1F [Voriconazole, voriconazole]	–

Compound	MIC (C. tropicalis 1046709) [µg/mL]	MIC [1, 3] [µg/mL]	MIC (C. albicans 967374) [µg/mL]	MIC (C. krusei ATCC 6258) [µg/mL]	MIC (C. parapsilosis 1048737; [4]) [µg/mL]	MIC (C. parapsilosis 1048737) [µg/mL]	MIC (A. fumigatus 1077391) [µg/mL]	MIC (F. solani SC 1047542) [µg/mL]	MIC (C. auris 1081160; read-out: MIC) [µg/mL]	MIC (A. flavus SC 1085986) [µg/mL]	MIC (C. krusei 975691; [5]) [µg/mL]	MIC (C. glabrata 1046695; read-out: MIC) [µg/mL]	MIC [2, 6] [µg/mL]	MIC (F. oxysporum SC 1087597) [µg/mL]	MIC (A. flavus ATCC 204304) [µg/mL]	other results
OC(Cn1cncn1)(Cn1cncn1)c1ccc(F)cc1F [Fluconazole, fluconazole]	4	1	16	32	0.5	1	–	–	–	–	–	–	–	–	–	MIC ([1]; single agent): 2 µg/mL; MIC (C. auris 1081160): > 128 µg/mL; MIC (C. krusei 975691; Pichia kudriavzevii): 128 µg/mL; MIC (C. glabrata 1046695): 128 µg/mL

Reference: patent publication US20220370486A1, “COMBINATION TREATMENT OF SYSTEMIC FUNGAL INFECTIONS” (The Board of Trustees of the University of Illinois, priority 2019, published 2022)
